Measurements as given in publication PMC10945480 (Journal of Medicinal Chemistry, 2024).
Like-named read-outs stand apart in the source and are kept apart here.

What was measured:
lung cancer A549 = assay: Cell viability, resazurin assay, A549; settings: Homo sapiens, A549, 24 h, read-out: A549 IC50
Experimental: (§4) Cells were maintained in a humidified incubator at 37 °C in 5% CO2, and cell viability was determined with the resazurin assay (Cayman Chemical, USA) after the incubation with compounds for indicated concentrations and times or DMSO as control.[72]

glioma U87 = assay: Cell viability, resazurin assay, U87; settings: Homo sapiens, 24 h, read-out: U87 IC50
Experimental: as §4

breast cancer MDA-MB-231 = assay: Cell viability, resazurin assay, MDA-MB-231; settings: Homo sapiens, MDA-MB-231, 24 h, read-out: MDA-MB-231 IC50
Experimental: as §4

[1] = molecular target: purified human recombinant PDI (rPDI) (Homo sapiens, UniProt P07237); assay: Recombinant PDI reductase activity (Di-E-GSSG assay); settings: human recombinant PDI, Di-E-GSSG
purified human recombinant PDI (rPDI), sequence (P07237 18-508): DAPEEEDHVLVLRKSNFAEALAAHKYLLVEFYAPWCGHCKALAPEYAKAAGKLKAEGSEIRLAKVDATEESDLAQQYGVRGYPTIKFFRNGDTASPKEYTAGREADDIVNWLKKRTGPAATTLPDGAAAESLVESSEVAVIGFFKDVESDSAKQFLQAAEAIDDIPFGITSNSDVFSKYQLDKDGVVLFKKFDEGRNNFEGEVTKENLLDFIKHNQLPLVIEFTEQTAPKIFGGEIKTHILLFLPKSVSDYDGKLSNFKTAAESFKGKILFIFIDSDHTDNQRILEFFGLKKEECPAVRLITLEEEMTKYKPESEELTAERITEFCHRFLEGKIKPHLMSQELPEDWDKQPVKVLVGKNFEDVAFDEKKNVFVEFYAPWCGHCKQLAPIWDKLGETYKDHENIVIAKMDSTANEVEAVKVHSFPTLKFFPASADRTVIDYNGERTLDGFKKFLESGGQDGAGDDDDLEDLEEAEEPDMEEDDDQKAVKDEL
Experimental: (§5) In this assay, a nonfluorescent substrate, dieosin glutathione disulfide (Di-E-GSSG), was reduced into a fluorescent product eosin-glutathione (E-GSH) by platelet surface PDI in the presence of 5 μM dithiothreitol (DTT).

Human rPDI = Human rPDI (Homo sapiens, UniProt P07237); assay: Effect of GSH on rPDI inhibition (Di-E-GSSG assay); type: biochemical; settings: 10 μM compound, 1 mM GSH vs 5 μM DTT
Human rPDI, sequence (P07237 18-508): as above
Experimental: (§1) GSH is the major cellular nonprotein thiol, which exists within cells at millimolar concentrations (1–8 mM) while is present extracellularly at only a few micromolar.[53] The high concentrations of intracellular GSH thus may compete with the binding of PDI to covalent PDI inhibitors.[54] […] In this assay, the noncovalent PDI inhibitor isoquercetin was used as a negative control.
Data are mean ± SEM of three independent experiments.

[2] = Parallel artificial membrane permeability assay (PAMPA); settings: 50 μM, 25 ℃, 3 h, verapamil = 100%, ranitidine = 0%
Experimental: 1. Parallel artificial membrane permeability assay (PAMPA). […]
evolution instruments from pION Inc. In the PAMPA assay, a set of sandwich plates consists of a 96-well microtiter donor plate at the bottom and a 96-well filter acceptor plate on the top from […]
The stock solutions of samples were prepared at 10 mM concentrations in DMSO and stored at 0 ℃ before use. Before being added to a 96-well filter plate, the stock solution was diluted first with buffer to achieve a final sample concentration of 50 μM and to reduce the DMSO concentration below 1% (v/v). Each well of the 96-well donor plate was filled with a 200 μL diluted sample solution (50 μM), and the 96-well filter acceptor plate was then wetted with a 5 μL 2% w/v dioleyoylphosphatidylcholine (DOPC) in n-dodecane and subsequently placed on the donor wells.
Immediately, the acceptor wells were filled with 200 μL of buffer solution and the PAMPA plate sandwich was sealed and incubated at 25 ℃ for 3 h. After reaching the permeation time, the PAMPA plate sandwich was separated and transferred to 96-well UV plates respectively. The amounts of drugs in both the donor and acceptor compartments were measured by comparing the experimental spectra with the UV spectrum (220∼400 nm) obtained from reference standards.

platelet surface PDI = platelet surface PDI (Homo sapiens, UniProt P07237); assay: Cell surface PDI reductase activity on intact human platelets (Di-E-GSSG assay); settings: read-out: Surface PDI IC50; intact human platelets, Di-E-GSSG, 5 μM DTT
platelet surface PDI, sequence (P07237 18-508): as above
Experimental: as §5

washed human platelets [3] = assay: Collagen-induced platelet aggregation; type: cell-based; settings: Platelet; washed human platelets, collagen (5 μg/mL)
Experimental: (§2) The antiplatelet effects of the JUG derivatives were evaluated by measuring human platelet aggregation, which can be regulated by cell surface PDI. Platelet aggregation was induced with platelet activators U46619 (a mimetic of thromboxane A2) and collagen (binding to GPVI).
(§3) Washed human platelets were prepared from acid citrate dextrose-anticoagulated blood of healthy human volunteers as described previously.[73] The study was approved by the Institutional Review Board of Kaohsiung Medical University, and informed consent was obtained from every volunteer. Platelet aggregation was measured by using a turbidimetric aggregometer (Chrono-Log Co., USA) under stirring conditions (1200 rpm) at 37 °C. The extent of platelet aggregation was measured as the maximal increase of light transmission after the addition of the stimulators U46619 and collagen.[73] In the TCIPA assay, platelet aggregation was induced by A549 (1 × 10^4 cells/mL), MDA-MB-231 (1 × 10^2 cells/mL), or RPMI8226 (1 × 10^5 cells/mL) cancer cells in the presence of 0.375% plasma.[74]

[4] = test system: human vascular endothelial EA.hy926 cells; assay: Cell viability, resazurin assay, EA.hy926; settings: EA.hy 926, 24 h, read-out: EAhy926 IC50
Experimental: as §4

washed human platelets [5] = assay: U46619-induced platelet aggregation; type: cell-based; settings: Platelet; washed human platelets, U46619 (1 μM)
Experimental: as §2, §3

[6] = test system: multiple myeloma RPMI8226; assay: Cell viability, resazurin assay, RPMI8226; settings: for IC50: Homo sapiens; for S.I. (EAhy926/RPMI8226), selectivity index: 24 h IC50 ratio
Experimental: as §4

[7] = UPLC-MS analysis of compound metabolites in water with or without GSH; type: physicochemical; settings: 37 °C, 30 min
Experimental: as §1
Compounds (400 μM) were incubated in water (250 μL) with or without GSH (4 mM) at 37 °C for 30 min. The compound mixture was diluted with methanol (250 μL) and used for UPLC-MS analysis Metabolite analysis was performed on an ACQUITY UPLC I-Class/SQ Detector 2 (Waters, Milford, USA). The reverse phase BEH C18 column (100 mm × 2.1 mm, 1.7 μm, Waters) and VanGuard BEH C18 guard column (5 mm × 2.1 mm, 1.7 μm, Waters) were used. All data were acquired by Empower 3. The mobile phase for LC separation was Millipore water (A) and acetonitrile (B), and the program was as follows: 0.00 min 90% A → 0.50 min 90% A → 6.50 min 5% A → 8.50 min 5% A → 8.60 min 90% A → 9.00 min 90% A; at a rate of 0.4 mL/min for 9.00 min with 5 μL per injection. The temperature of the column oven was maintained at 40 °C. Mass spectrometer parameters were set as follows: cone voltage, 40.0 V, for positive/negative ion mode; desolvation temperature, 200 °C; cone gas flow(N2), 1 L/h; and desolvation gas flow (N2), 650 L/h.

PDI = test system: PDI; design: method as in PMID 22565308, PMID 22988091, PMID 27197150, PMID 24070012, PMID 24624466; settings: reported PDI inhibitors, Figure 1b; read-out: PDI IC50 measured by the insulin-aggregation assay; cited from earlier work
[8] = test system: washed human platelets coincubated with A549, MDA-MB-231, or RPMI8226 cancer cells; assay: Tumor cell-induced platelet aggregation (TCIPA); type: cell-based; settings: 2 μM; A549, MDA-MB-231, RPMI8226 cells, in the presence of plasma
A549 cancer cells = assay: Platelet-enhanced tumor cell proliferation; type: cell-based, human; settings: A549 plus platelets, 48 h, 0.5 to 2 μM
Experimental: In order to examine platelet-enhanced cancer cell growth, A549 cancer cells were coincubated with platelets for 48 h.
Figure 5 Inhibitory effects of JUG derivatives 18 and 22 on tumor cell-induced platelet secretion and platelet-enhanced tumor cell proliferation. (a) Washed human platelets were coincubated with A549 cancer cells under the same conditions as described in Figure 4. Secretion of PDGF and ATP were determined with the enzyme-linked immunosorbent assay (ELISA) and bioluminescent assay, respectively. (b) A549 cancer cells were coincubated with washed human platelets at 37 °C and 5% CO2 in a cell culture incubator for 48 h. After washing with PBS, the numbers of viable cancer cells were determined by trypan blue exclusion. Data are mean ± SEM of at least three independent experiments. In (a), *P < 0.05; **P < 0.01; ***P < 0.001 as compared with vehicle control (DMSO). In (b), *P < 0.05; **P < 0.01; ***P < 0.001 as compared with A549 cells plus platelets.
A549 cells (1 × 10^4 cells/well) were seeded in a 96-well plate and coincubated with wash human platelets (1 × 10^7 cells/well) containing with 0.375% plasma for 48 h at 37 °C and 5% CO2 in a cell culture incubator. After washing with phosphate buffered saline, the numbers of viable cancer cells were determined by trypan blue exclusion.

[9] = test system: washed human platelets coincubated with A549 cancer cells; assay: Tumor cell-induced platelet secretion (PDGF, ATP); type: cell-based
Experimental: (a) Washed human platelets were coincubated with A549 cancer cells under the same conditions as described in Figure 4. Secretion of PDGF and ATP were determined with the enzyme-linked immunosorbent assay (ELISA) and bioluminescent assay, respectively. (b) A549 cancer cells were coincubated with washed human platelets at 37 °C and 5% CO2 in a cell culture incubator for 48 h. After washing with PBS, the numbers of viable cancer cells were determined by trypan blue exclusion. Data are mean ± SEM of at least three independent experiments.
Washed human platelets were coincubated with cancer cells under the same conditions as described in the TCIPA assay. After a 25 min incubation in the aggregometer, the samples were centrifuged at 13,000g for 1 min. The concentrations of PDGF-BB and ATP in the supernatants were determined using an ELISA kit (Abcam, Cambridge, UK) and an ATP bioluminescent assay kit (Sigma, MO, USA), respectively.[52]

ERp57 (PDIA3) = molecular target: T1, ERp57 (PDIA3) (Homo sapiens, UniProt P30101); assay: ERp57 reductase assay (Di-E-GSSG); type: biochemical; settings: ERp57 and ERp72 together, fold higher than required to inhibit PDI
T1 sequence (P30101 25-505): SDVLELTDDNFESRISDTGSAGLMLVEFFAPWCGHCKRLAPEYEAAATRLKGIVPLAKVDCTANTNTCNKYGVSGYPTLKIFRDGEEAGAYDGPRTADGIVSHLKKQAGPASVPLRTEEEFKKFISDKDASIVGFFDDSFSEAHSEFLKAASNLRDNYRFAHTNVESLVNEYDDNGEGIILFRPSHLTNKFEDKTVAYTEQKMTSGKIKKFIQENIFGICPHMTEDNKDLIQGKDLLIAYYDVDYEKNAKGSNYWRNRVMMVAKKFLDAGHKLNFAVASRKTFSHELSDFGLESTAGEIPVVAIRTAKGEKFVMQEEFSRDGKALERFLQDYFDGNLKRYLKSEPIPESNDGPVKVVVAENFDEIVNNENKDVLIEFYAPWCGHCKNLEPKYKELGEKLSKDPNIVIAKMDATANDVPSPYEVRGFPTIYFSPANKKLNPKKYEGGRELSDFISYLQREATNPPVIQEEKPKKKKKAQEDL
Source text: In addition to PDI, ERp57 (PDIA3) and ERp72 (PDIA4) are two other major members of the PDI family in both platelets and A549 cells.[62],[63]

[10] = RPMI-8226, 24 h, read-out: RPMI8226 IC50

| IC50 (lung cancer A549) | IC50 (glioma U87) | IC50 (breast cancer MDA-MB-231) | IC50 ([1]; read-out: rPDI IC50, 5 μM DTT) | Permeability (%) [2] | IC50 (platelet surface PDI) | IC50 (washed human platelets [3]) | IC50 (washed human platelets [5]) | IC50 [6, 10] | Compound | IC50 ([1]; read-out: PDI IC50, Table 4) | PDI-inhibitory activity in the presence of GSH (Human rPDI) | IC50 [4] | S.I. (EAhy926/RPMI8226), selectivity index [6] | IC50 (PDI) | further results |
| --- | --- | --- | --- | --- | --- | --- | --- | --- | --- | --- | --- | --- | --- | --- | --- |
| 12.6 ± 1.51 µM | 7.39 ± 0.22 µM | 11.3 ± 1.09 µM | 0.67 ± 0.09 µM | 28.86% | 0.46 ± 0.07 µM | 6.65 ± 1.74 µM | 3.54 ± 0.11 µM | 3.07 ± 0.29 µM | CC(=O)OC[C@H]1O[C@@H](SC2=C(c3ccc(O)cc3O)C(=O)c3c(O)cccc3C2=O)[C@H](OC(C)=O)[C@@H](OC(C)=O)[C@@H]1OC(C)=O [Compound 31, 2-(2,4-Dihydroxyphenyl)-3-(2,3,4,6-tetra-O-acetyl-1-thio-β-D-glucopyranose)-8-hydroxynaphthalene-1,4-dione] | – | largely reduced by GSH | 6.87 ± 0.21 µM | 2.2 | – | stability in aqueous conditions (UPLC-MS) ([7]; 400 μM in water): easily hydrolyzed in aqueous condition; GSH adduct formation after GSH treatment (UPLC-MS) ([7]; 400 μM, GSH 4 mM): significant amount of GSH addition product |
| – | – | – | – | – | – | – | – | – | N#Cc1cccc(/C=C/C(=O)c2ccc(O)cc2)c1 [BAP-2] | – | – | – | – | 0.93 µM | – |
| 8.95 ± 0.23 µM | 3.22 ± 0.37 µM | 4.42 ± 0.98 µM | 0.63 ± 0.12 µM | 57.45% | 0.62 ± 0.06 µM | 0.5 ± 0.08 µM | 1.54 ± 0.02 µM | 0.66 ± 0.08 µM | CC(=O)OC[C@H]1O[C@H](OC2=CC(=O)c3cccc(O)c3C2=O)[C@H](OC(C)=O)[C@@H](OC(C)=O)[C@@H]1OC(C)=O [Compound 22, 2-(2,3,4,6-Tetra-α-O-acetylglucopyranosyl)-8-hydroxynaphthalene-1,4-dione] | 0.63 ± 0.12 µM | – | 5.42 ± 0.05 µM | 8.2 | – | prevention of TCIPA [8]: significantly prevented TCIPA; platelet-enhanced cancer cell growth (A549 cancer cells): to a lesser extent; IC50 ([6]; RPMI-8226, 72 h, read-out: RPMI8226 IC50, 72 h): 0.048 µM; tumor cell-induced increase in extracellular PDGF and ATP (platelet secretion) [9]: reduced; concentrations inhibiting ERp57 and ERp72 relative to PDI (ERp57 (PDIA3)): 4 to 7 fold |
| – | – | – | – | – | – | – | – | – | CCOC(=O)C1(CCOc2ccccc2)CCN(Cc2ccc(O)c(Cl)c2)CC1 [ML359] | – | – | – | – | 0.25 µM | – |

| Compound | IC50 (lung cancer A549) | IC50 (glioma U87) | IC50 (breast cancer MDA-MB-231) | IC50 ([1]; read-out: rPDI IC50, 5 μM DTT) | Permeability (%) [2] | IC50 (platelet surface PDI) | IC50 (washed human platelets [3]) | IC50 (washed human platelets [5]) | IC50 [6, 10] | IC50 ([1]; read-out: PDI IC50, Table 4) | PDI-inhibitory activity in the presence of GSH (Human rPDI) | IC50 [4] | S.I. (EAhy926/RPMI8226), selectivity index [6] | IC50 (PDI) | further results |
| --- | --- | --- | --- | --- | --- | --- | --- | --- | --- | --- | --- | --- | --- | --- | --- |
| O=C1C=CC(=O)c2c(O)cccc21 [JUG (7), 5-hydroxy-1,4-naphthoquinone, reference compound] | 11.9 ± 0.6 µM | 7.45 ± 0.33 µM | 6.15 ± 0.78 µM | 1.1 ± 0.17 µM | 83.43% | 0.63 ± 0.07 µM | 1.18 ± 0.14 µM | 4.45 ± 0.47 µM | 3.95 ± 0.7 µM | 1.1 ± 0.17 µM | completely lost PDI-inhibitory activity | 5.57 ± 0.02 µM | – | – | – |
